From US20190307820A1, “COMPOSITIONS AND METHODS OF USING STAT1/3 INHIBITORS WITH ONCOLYTIC HERPES VIRUS” (priority 2016, published 2019)
Structures can show the parent of a compound that is named as a salt.

Columns and labels:
[1] = test system: oHSV-1 (G207) in BV2 cells; assay: G207 replication in BV2 cells with chemical inhibitors, plaque forming assay; format: cell-based, HSV-1; settings: G207 MOI of 1, 48 hours
Method: (§1) FIG. 12A contains bar graphs showing the results of BV2 cells that were pre-treated with indicated chemical compounds for 1-2 hours and then infected with oHSV-1 at an MOI of 1. Viruses were harvested after 48 hours of oHSV-1 (G207) and indicated chemical inhibitor treatment.
as §1, with “12F is a” for “12A contains”, “graph” for “graphs”, “treatment. After 48 hours of treatment with oHSV-1 (G207) and C16, viruses were harvested and titrated by plaque forming assay on vero cells.” for “treatment.”
U87 (5×104) alone or U87+microglia co-culture (5×104+5×104) or BV2 microglia cells (5×104) alone were seeded into a 24-well plate. After overnight incubation (to allow the cells to attach), cells were pretreated with indicated concentration of NFkB inhibitor, Bay-11 (Santa Cruz, Canada) or an indicated concentration of imidazolo-oxindole derivative C16 (Milipore, Canada) or vehicle for 1-2 hours. The cells were then infected with oHSV-1 (G207 or HrR3) virus at a MOI of 1 in presence of chemical inhibitors for another 2 days. The viruses were harvested and titrated in vero cells by plaque forming assay in 12-well plates by triplicates.
The effects of a PKR inhibitor (C16), a NFkappaB inhibitor (Bay11), and an iNOS inhibitor (aminoguanidine hydrochloride) were tested on G207 replication in BV2 cells (Example 15). […] To verify that C16-mediated viral gene transcriptional augmentation is not due to deletions in ICP34.5 and/or ICP6 in G207, the effect of C16 on wild type (KOS) and ICP6 mutated (HrR3) HSV-1 infected BV2 cells was also examined. […] Finally, whether C16 can overcome this microglia-mediated suppression of viral replication in glioma cells was examined.

[2] = test system: ICP4; assay: Western blot of ICP4 in HSV-1 infected microglia cells; format: cell-based; settings: G207 infected; 1 μM C16, 1 μM Bay11 or 100 μM AG; 24 hours
Method: FIG. 12B depicts an electrophoresis gel showing total proteins that were harvested from G2O7 infected microglia cells at 24 hours post treatment with either 1 μM of C16, 1 μM of Bay11, or 100 μM of AG. ICP27, ICP4, and […] expression was measured by western blot assay. U87 and MG co-culture were pretreated with 0.5 μM of C16 for 1 hour.
Total protein was harvested with sample buffer (125 mM Tris-HCL, 50% Glycerol, […] and 5% 2-mercaptoethanol) and boiled for 5 minutes. Protein samples were subjected to SDS-PAGE (8% gel), transferred to nitrocellulose membranes and blocked in 5% nonfat milk (Bio Rad) in TBS-Tween 20 (TBS-T) for 1 hour at room temperature. The membranes were then incubated with primary antibody against β-actin at 1:1000 (Cell Signaling, Danvers, Mass.) or anti-STAT1 antibody at 1:1000 (Cell Signaling, Danvers, Mass.) or anti-STAT3 antibody at 1:1000 (Cell Signaling, Danvers, Mass.) or anti-phospho STAT1 antibody (Tyr701) at 1:1000 (Cell Signaling, Danvers, Mass.) or anti-phospho STAT3 antibody (Tyr705) at 1:1500 (Cell Signaling, Danvers, Mass.) or anti-phosphor-eIF2a antibody (ser51) at 1:1000 (Cell Signaling, Danvers, Mass.) or anti-ICP27 antibody at 1:1000 (Abcam, Cambridge, Mass.) or anti-ICP4 antibody at 1:750 (Abcam, Cambridge, Mass.) for overnight at 4° C. […] Band density was measured by using ImageJ software (NIH, Bethesda, Md.). […]

SMILES	effect on oHSV-1 replication [1]	upregulated expression of ICP4 [2]
N=C(N)NN [aminoguanidine hydrochloride]	no effect on oHSV-1 replication	
Cc1ccc(S(=O)(=O)/C=C/C#N)cc1 [Bay11]	no effect on oHSV-1 replication	not
